Assay results published in patent US9497970B2, “Pesticide compounds” (priority 2013, dated 2016).

Legend:
Format in all cases: in vivo
[1] = test system: Diamond Back Moth (Plutella xylostella); assay: B.1 Diamond Back Moth (Plutella xylostella), cabbage leaf dip; settings: foliar, 500 ppm, 3rd instar larvae on dipped cabbage leaves, 72 hours after treatment, in comparison with untreated controls, read-out: mortality
Method in brief: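 Cabbage leaves dipped in compound in 1:1 water:acetone with 0.01% Kinetic HV surfactant, air-dried, then infested with ten 3rd-instar larvae on moist filter paper. Mortality scored at 72 h after treatment; feeding damage rated on a 0-100% scale.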

[2] = test system: Boll Weevil (Anthonomus grandis); assay: B.3 Boll Weevil (Anthonomus grandis), microtiter plate insect diet; settings: 120 h, 800 ppm, sprayed onto insect diet, 5 days, in comparison with untreated controls, read-out: mortality (egg and larval)
Method in brief: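 Compounds in 25% DMSO/water sprayed at several concentrations onto insect diet in microtiter wells holding 5–10 A. grandis eggs, two replicates. Plates kept 5 days at about 25±1 °C and 75±5% RH. Egg and larval mortality scored visually.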

[3] = test system: Silverleaf Whitefly (Bemisia argentifoli); assay: B.5 Silverleaf Whitefly (Bemisia argentifoli), sprayed cotton plants; settings: 72 h, whitefly adults on sprayed cotton plants, 3 days after treatment, in comparison with untreated controls
Method: B.5 Silverleaf Whitefly (Bemisia argentifoli)
(§1) The active compounds were formulated by a Tecan liquid handler in 100% cyclohexanone as a 10,000 ppm solution supplied in tubes. The 10,000 ppm solution was serially diluted in 100% cyclohexanone to make interim solutions. These served as stock solutions for which final dilutions were made by the Tecan in 50% acetone:50% water (v/v) into 5 or 10 ml glass vials. A nonionic surfactant (Kinetic®) was included in the solution at a volume of 0.01% (v/v). The vials were then inserted into an automated electrostatic sprayer equipped with an atomizing nozzle for application to plants/insects.
Cotton plants at the cotyledon stage (one plant per pot) were sprayed by an automated electrostatic plant sprayer equipped with an atomizing spray nozzle. The plants were dried in the sprayer fume hood and then removed from the sprayer. Each pot was placed into a plastic cup and about 10 to 12 whitefly adults (approximately 3-5 days old) were introduced. The insects were collected using an aspirator and a nontoxic Tygon® tubing connected to a barrier pipette tip. The tip, containing the collected insects, was then gently inserted into the soil containing the treated plant, allowing insects to crawl out of the tip to reach the foliage for feeding. Cups were covered with a reusable screened lid. Test plants were maintained in a growth room at about 25° C. and about 20-40% relative humidity for 3 days, avoiding direct exposure to fluorescent light (24 hour photoperiod) to prevent trapping of heat inside the cup. Mortality was assessed 3 days after treatment, compared to untreated control plants.

[4] = test system: Mediterranean Fruitfly (Ceratitis capitata); assay: B.6 Mediterranean Fruitfly (Ceratitis capitata), microtiter plate insect diet; settings: 120 h, 800 ppm, sprayed onto insect diet, 5 days, in comparison with untreated controls, read-out: mortality (egg and larval)
Method in brief: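 Insect diet with 50-80 C. capitata eggs sprayed with compounds formulated in 75% water/25% DMSO, at different concentrations, two replications. Incubation at about 28±1° C and 80±5% relative humidity for 5 days, then egg and larval mortality assessed visually.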

[5] = test system: Tobacco Budworm (Heliothis virescens); assay: B.7 Tobacco Budworm (Heliothis virescens) I, microtiter plate insect diet; settings: 120 h, 800 ppm, sprayed onto insect diet, 5 days, in comparison with untreated controls, read-out: mortality (egg and larval)
Method in brief: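 96-well plates with insect diet and 15-25 H. virescens eggs; compounds in 75% water/25% DMSO sprayed onto diet at several concentrations, two replicates. Plates held at about 28±1° C. and 80±5% relative humidity for 5 days, then egg and larval mortality scored visually.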

[6] = test system: Southern Armyworm (Spodoptera eridania), 2nd Instar Larvae; assay: B.10 Southern Armyworm (Spodoptera eridania), 2nd Instar Larvae, sprayed lima bean plants; settings: 96 h, 300 ppm, larvae on sprayed lima bean plants, 4 days after treatment, in comparison with untreated controls, read-out: mortality
Method: B.10 Southern Armyworm (Spodoptera eridania), 2nd Instar Larvae
as §1
Lima bean plants (variety Sieva) were grown 2 plants to a pot and selected for treatment at the 1st true leaf stage. Test solutions were sprayed onto the foliage by an automated electrostatic plant sprayer equipped with an atomizing spray nozzle. The plants were dried in the sprayer fume hood and then removed from the sprayer. Each pot was placed into perforated plastic bags with a zip closure. About 10 to 11 armyworm larvae were placed into the bag and the bags zipped closed. Test plants were maintained in a growth room at about 25° C. and about 20-40% relative humidity for 4 days, avoiding direct exposure to fluorescent light (24 hour photoperiod) to prevent trapping of heat inside the bags. Mortality and reduced feeding were assessed 4 days after treatment, compared to untreated control plants.

[7] = test system: Yellow Fever Mosquito (Aedes aegypti); assay: whole plant or invertebrate; settings: 48 h, freshly hatched larvae in tap water, 2 days, in comparison with untreated controls, read-out: mortality (larval)
Method in brief: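 Freshly hatched A. aegypti larvae, 5–15 per well, were held in 200 μl tap water. Compounds formulated in 75:25 water:DMSO were sprayed at various concentrations, 2.5 μl per well by micro-atomizer, in two replicates.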

[8] = test system: Orchid thrips (dichromothrips corbetti); assay: B.12 Orchid thrips (dichromothrips corbetti), floral-immersion technique; settings: adult thrips on dipped orchid petals, 72 hours after treatment, in comparison with untreated controls
Method in brief: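 Whole orchid flower petals were dipped in compound in 1:1 acetone:water with 0.01% v/v Kinetic HV, dried, and enclosed with about 20 adult thrips. They were held under continuous light at about 28° C. Live thrips were counted and percent mortality recorded at 72 hours.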

[9] = test system: Vetch Aphid (Megoura viciae); assay: B.8 Vetch Aphid (Megoura viciae), broad bean leaf disks; settings: foliar, 120 h, 2500 ppm, adult aphids on sprayed leaf disks, 5 days, in comparison with untreated controls, read-out: mortality
Method: B.8 Vetch Aphid (Megoura viciae)
For evaluating control of vetch aphid (Megoura viciae) through contact or systemic means the test unit consisted of 24-well-microtiter plates containing broad bean leaf disks.
The compounds were formulated using a solution containing 75% v/v water and 25% v/v DMSO. Different concentrations of formulated compounds were sprayed onto the leaf disks at 2.5 μl, using a custom built micro atomizer, at two replications.
After application, the leaf disks were air-dried and 5-8 adult aphids placed on the leaf disks inside the microtiter plate wells. The aphids were then allowed to suck on the treated leaf disks and incubated at about 23±1° C. and about 50±5% relative humidity for 5 days. Aphid mortality and fecundity was then visually assessed.

[10] = test system: Green Peach Aphid (Myzus persicae); assay: B.9 Green Peach Aphid (Myzus persicae), sprayed bell pepper plants; settings: 120 h, infested bell pepper plants sprayed, after 5 days, in comparison with untreated controls
Method: B.9 Green Peach Aphid (Myzus persicae)
as §1, with “in 100% cyclohexa none as a” for “in 100% cyclohexanone as a”
Bell pepper plants at the first true-leaf stage were infested prior to treatment by placing heavily infested leaves from the main colony on top of the treatment plants. Aphids were allowed to transfer overnight to accomplish an infestation of 30-50 aphids per plant and the host leaves were removed. The infested plants were then sprayed by an automated electrostatic plant sprayer equipped with an atomizing spray nozzle. The plants were dried in the sprayer fume hood, removed, and then maintained in a growth room under fluorescent lighting in a 24-hr photoperiod at about 25° C. and about 20-40% relative humidity. Aphid mortality on the treated plants, relative to mortality on untreated control plants, was determined after 5 days.

CC(C)c1ccccc1N1CCCSC1=NN=Cc1ccc2c(ccc3c2ncn3-c2ccc(OC(F)(F)F)cc2)c1 (stereo in doubt) [C-55, (Z)-3-(2-isopropylphenyl)-2-((E)-((3-(4-(trifluoromethoxy)phenyl)-3H-naphtho[1,2-d]imidazol-7-yl)methylene)hydrazono)-1,3-thiazinane]
≥ 75%: mortality at 500 ppm [1] | mortality at 800 ppm [2] | mortality at 300 ppm [3] | mortality at 800 ppm [4] | mortality at 800 ppm [5] | mortality at 300 ppm [6] | mortality at 800 ppm [7] | mortality at 500 ppm [8]

FC(F)(F)Oc1ccc(-c2onc3c2CCc2cc(/C=N/NC(=S)Nc4cc(C(F)(F)F)ccc4Cl)ccc2-3)cc1 [C-18, 1-[2-chloro-5-(trifluoromethyl)phenyl]-3-[(E)-[3-[4-(trifluoromethoxy)phenyl]-4,5-dihydrobenzo[g][2,1]benzoxazol-7-yl]methyleneamino]thiourea]
≥ 75%: mortality at 2500 ppm [9]

CC(C)c1ccccc1N1C(=O)CS/C1=N\N=C\c1ccc2c(ccc3c2ncn3-c2ccc(OC(F)(F)F)cc2)c1 [C-51]
≥ 75%: mortality at 500 ppm [1] | mortality at 800 ppm [2] | mortality at 300 ppm [3] | mortality at 800 ppm [4] | mortality at 800 ppm [5] | mortality at 800 ppm [10] | mortality at 300 ppm [6] | mortality at 800 ppm [7] | mortality at 500 ppm [8]

CS/C(=N\N=C\c1ccc2c(ccc3c2ncn3-c2ccc(OC(F)(F)F)cc2)c1)Nc1ccccc1C(C)C [C-52, (1Z,N′E)-methyl N-2-isopropylphenyl-N′-((3-(4-(trifluoromethoxy)phenyl)-3H-naphtho[1,2-d]imidazol-7-yl)methylene)carbamohydrazonothioate]
≥ 75%: mortality at 500 ppm [1] | mortality at 800 ppm [2] | mortality at 300 ppm [3] | mortality at 800 ppm [4] | mortality at 800 ppm [5] | mortality at 800 ppm [10] | mortality at 300 ppm [6] | mortality at 500 ppm [8]

CCc1cccc(CC)c1NC(=S)N/N=C/c1ccc2c(ccc3c2ncn3-c2ccc(OC(F)(F)F)cc2)c1 [C-70, 1-(2,6-diethylphenyl)-3-[(E)-[3-[4-(trifluoromethoxy)phenyl]benzo[e]benzimidazol-7-yl]methyleneamino] thiourea]
≥ 75%: mortality at 500 ppm [1] | mortality at 800 ppm [2] | mortality at 300 ppm [3] | mortality at 800 ppm [5] | mortality at 800 ppm [10] | mortality at 300 ppm [6] | mortality at 800 ppm [7] | mortality at 500 ppm [8]

Cc1cccc(C)c1NC(=S)N/N=C/c1ccc2c(ccc3c2ncn3-c2ccc(SC(F)(F)F)cc2)c1 [C-75, 1-(2,6-dimethylphenyl)-3-[(E)-[3-[4-(trifluoromethylsulfanyl)phenyl]benzo[e]benzimidazol-7-yl]methyleneamino] thiourea]
≥ 75%: mortality at 500 ppm [1] | mortality at 800 ppm [2] | mortality at 300 ppm [3] | mortality at 800 ppm [4] | mortality at 800 ppm [5] | mortality at 800 ppm [10] | mortality at 300 ppm [6] | mortality at 800 ppm [7] | mortality at 500 ppm [8]

CCc1cccc(C)c1NC(=S)N/N=C/c1ccc2c(ccc3c2ncn3-c2ccc(SC(F)(F)F)cc2)c1 [C-76, 1-(2-ethyl-6-methyl-phenyl)-3-[(E)-[3-[4-(trifluoromethylsulfanyl)phenyl]benzo[e]benzimidazol-7-yl]methyleneamino]thiourea]
≥ 75%: mortality at 500 ppm [1] | mortality at 800 ppm [2] | mortality at 300 ppm [3] | mortality at 800 ppm [4] | mortality at 800 ppm [5] | mortality at 800 ppm [10] | mortality at 300 ppm [6] | mortality at 800 ppm [7] | mortality at 500 ppm [8]

Cc1cccc(Cl)c1NC(=S)N/N=C/c1ccc2c(ccc3c2ncn3-c2ccc(C(F)(F)F)cc2)c1 [C-77, 1-(2-chloro-6-methyl-phenyl)-3-[(E)-[3-[4-(trifluoromethyl)phenyl]benzo[e]benzimidazol-7-yl]methyleneamino] thiourea]
≥ 75%: mortality at 500 ppm [1] | mortality at 800 ppm [2] | mortality at 300 ppm [3] | mortality at 800 ppm [4] | mortality at 800 ppm [5] | mortality at 800 ppm [10] | mortality at 300 ppm [6] | mortality at 800 ppm [7] | mortality at 500 ppm [8]

CSc1cccc(C)c1NC(=S)N/N=C/c1ccc2c(ccc3c2ncn3-c2ccc(OC(F)(F)F)cc2)c1 [C-103, 1-(2-methyl-6-methylsulfanyl-phenyl)-3-[(E)-[3-[4-(trifluoromethoxy)phenyl]benzo[e]benzimidazol-7-yl]methyleneamino]thiourea]
≥ 75%: mortality at 500 ppm [1] | mortality at 800 ppm [2] | mortality at 300 ppm [3] | mortality at 800 ppm [4] | mortality at 800 ppm [5] | mortality at 300 ppm [6] | mortality at 800 ppm [7] | mortality at 500 ppm [8]

Cc1cccc(C)c1NC(=S)N/N=C/c1ccc2c(ccc3c2ncn3-c2ccc(C(F)(F)F)cn2)c1 [C-109, 1-(2,6-dimethylphenyl)-3-[(E)-[3-[5-(trifluoromethyl)-2-pyridyl]benzo[e]benzimidazol-7-yl]methyleneamino] thiourea]
≥ 75%: mortality at 500 ppm [1] | mortality at 800 ppm [2] | mortality at 300 ppm [3] | mortality at 800 ppm [4] | mortality at 800 ppm [5] | mortality at 800 ppm [10] | mortality at 800 ppm [7]
